Data from US10377985B2, “Neural progenitor cell differentiation” (priority 2013, dated 2019).
Several values for one entry are separate records, joined by “and”; a condition that tells them apart may be missing. Equal entries are not always repeated. Entries after “also recorded” stand apart in the source; their conditions may differ.

Key:
[1] = test system: native rabbit intestinal tissue
[2] = test system: native rabbit intestinal tissue; test: Electrical field stimulation induced relaxation, real-time force generation
[3] = test system: native rabbit intestinal tissue; remark: listed apart in the source
[4] = test system: tissue engineered innervated intestinal smooth muscle sheets; assay type: cell-based, rabbit
[5] = test system: tissue engineered innervated intestinal smooth muscle sheets; test: Electrical field stimulation induced relaxation, real-time force generation; assay type: cell-based, rabbit

[Cl-].[K+] [KCl, Potassium chloride]
peak KCl-induced contraction [1]: 373.5±10.63 μN and 373.3±10.63 μN

[D-p-Cl-Phe6, Leu17]-Vasoactive Intestinal Peptide [VIP-Ra]
inhibition of EFS-induced relaxation with VIP-Ra ([2]; VIP-Ra 2 μM pre-treatment): 73.32±3.23%

CC(=O)OCC[N+](C)(C)C [Ach, Acetylcholine]
area under the curve of Ach-induced contraction ([3]; 1 μM Ach, native tissue): 70448±5876 AU
peak Ach-induced contraction ([3]; 1 μM Ach, native tissue): 342.6±3.15 μN

COC(=O)[C@@H](N)CCCNC(=N)N[N+](=O)[O-].Cl [L-NAME, Nω-Nitro-L-arginine methyl ester hydrochloride]
inhibition of EFS-induced relaxation with L-NAME ([2]; L-NAME 300 μM pre-treatment, hydrochloride): 78±2.9% and ~78%
inhibition at 300 µM ([2]; Oryctolagus cuniculus, L-NAME 300 μM pre-treatment, read-out: inhibition of EFS-induced relaxation with L-NAME): 78 ± 2.85%

NC1=N[C@H](O)[C@H]2[C@H]3O[C@]4(O)O[C@@H]([C@@H](O)[C@@]2(N1)[C@@H]4O)[C@]3(O)CO [TTX, tetrodotoxin]
effect of TTX pre-treatment on KCl-induced contraction [4]: unaffected; also recorded: did not inhibit
inhibition of Ach-induced contraction with TTX [3]: 72.73±3.66% and 72.73±3.7%
effect of TTX pre-treatment on EFS-induced relaxation [5]: inhibited entirely
